According to patent US10351546B2, “Pyridin-3-yl acetic acid derivatives as inhibitors of human immunodeficiency virus replication” (priority 2015, dated 2019):
Like-named read-outs stand apart in the source and are kept apart here.

System: NL-RLuc virus
Assay: Inhibition of HIV replication (NL-RLuc luciferase reporter virus in MT-2 cells)
Type: cell-based
From the text: Inhibition of HIV replication: A recombinant NL-RLuc proviral clone was constructed in which a section of the nef gene form NL4-3 was replaced with the Renilla Luciferase gene. This virus is fully infectious and can undergo multiple cycles of replication in cell culture. In addition, the luciferous reporter provides a simple and easy method for quantitating the extent of virus growth and consequently, the antiviral activity of test compounds. The plasmid pNLRLuc contains the proviral NL-Rluc DNA cloned into pUC18 at the PvuII site. The NL-RLuc virus was prepared by transfection of 293T cells with the plasmid pNLRLuc. Transfections were performed using the LipofectAMINE PLUS kit form Invitrogen (Carlsbad, Calif.) according to the manufacturer and the virus generated was titered in MT-2 cells. For susceptibility analyses, the titrated virus was used to infect MT-2 cells in the presence of compound, and after 5 days of incubation, cells were processed and quantitated for virus growth by the amount of expressed luciferase. Assay media was RPMI 1640 supplemented with 10% heat inactivated fetal bovine serum (FBS), 100 units/ml penicillin G/100 units/ml streptomycin, 10 mM HEPES buffer pH 7.55 and 2 mM L-glutamine. The results form at least 2 experiments were used to calculate the EC50 values. Luciferase was quantitated using the Dual Luciferase kit form Promega (Madison, Wis.). Susceptibility of viruses to compounds was determined by incubation in the presence of serial dilutions of the compound. The 50% effective concentration (EC50) was calculated by using the exponential form of the median effect equation where (Fa)=1/[1+(ED50/drug conc.)^m](Johnson V A, Byington R T. Infectivity Assay. In Techniques in HIV Research. ed. Aldovini A, Walker B D. 71-76. New York: Stockton Press. 1990). Activity equal to A refers to a compound having an EC50≤100 nM, while B and C denote compounds having an EC50 between 100 nM and 1 uM (B) or >1 uM (C).

[1] = Human immunodeficiency virus 1, MT2, 120 h, read-out: Activity
[2] = Human immunodeficiency virus 1, MT2, 120 h, read-out: EC50 μM
[3] = read-out: Activity, NL-RLuc virus in MT-2 cells, 5 days of incubation, luciferase readout

Row | Compound | EC50 [1] | EC50 [2] | EC50 [3]
1 | COCCNCc1nc(C)c([C@H](OC(C)(C)C)C(=O)O)c(N2CCC(C)(C)CC2)c1-c1ccc(OCCc2ccc(F)cc2)cc1 [Example 68, (S)-2-(tert-Butoxy)-2-(4-(4,4-dimethylpiperidin-1-yl)-5-(4-(4-fluorophenethoxy)phenyl)-6-(((2-methoxyethyl)amino)methyl)-2-methylpyridin-3-yl)acetic acid] | < 0.1 µM | – | –
2 | Cc1nc(CF)c(-c2ccc(OCCc3ccc(F)cc3)cc2)c(N2CCC(C)(C)CC2)c1[C@H](OC(C)(C)C)C(=O)O [Example 5, (S)-2-(tert-Butoxy)-2-(4-(4,4-dimethylpiperidin-1-yl)-6-(fluoromethyl)-5-(4-(4-fluorophenethoxy)phenyl)-2-methylpyridin-3-yl)acetic acid] | < 0.1 µM | – | –
3 | Cc1cccc(Cl)c1CN1CCc2cc(-c3c(C#N)nc(C)c([C@H](OC(C)(C)C)C(=O)O)c3N3CCC(C)(C)CC3)ccc2C1 [Example 166, (S)-2-(tert-butoxy)-2-(5-(2-(2-chloro-6-methylbenzyl)-1,2,3,4-tetrahydroisoquinolin-6-yl)-6-cyano-4-(4,4-dimethylpiperidin-1-yl)-2-methylpyridin-3-yl)acetic acid] | < 0.1 µM | – | –
4 | CCNCc1nc(C)c([C@H](OC(C)(C)C)C(=O)O)c(N2CCC(C)(C)CC2)c1-c1ccc(OCCc2ccc(F)cc2)cc1 [Example 71, (S)-2-(tert-Butoxy)-2-(4-(4,4-dimethylpiperidin-1-yl)-6-((ethylamino)methyl)-5-(4-(4-fluorophenethoxy)phenyl)-2-methylpyridin-3-yl)acetic acid] | < 0.1 µM | 0.002 µM | –
5 | Cc1cc(F)ccc1CN1CCc2cc(-c3c(CN4CC[C@H](F)C4)nc(C)c([C@H](OC(C)(C)C)C(=O)O)c3N3CCC(C)(C)CC3)ccc2C1 [Example 132, (S)-2-(tert-Butoxy)-2-(4-(4,4-dimethylpiperidin-1-yl)-5-(2-(4-fluoro-2-methylbenzyl)-1,2,3,4-tetrahydroisoquinolin-6-yl)-6-(((S)-3-fluoropyrrolidin-1-yl)methyl)-2-methylpyridin-3-yl)acetic acid] | < 0.1 µM | – | –
6 | Cc1nc(CNCc2ccncc2)c(-c2ccc(OCCc3ccc(F)cc3)cc2)c(N2CCC(C)(C)CC2)c1[C@H](OC(C)(C)C)C(=O)O [Example 74, (S)-2-(tert-Butoxy)-2-(4-(4,4-dimethylpiperidin-1-yl)-5-(4-(4-fluorophenethoxy)phenyl)-2-methyl-6-(((pyridin-4-ylmethyl)amino)methyl)pyridin-3-yl)acetic acid] | < 0.1 µM | – | –
7 | Cc1cc(F)ccc1CN1CCc2cc(-c3c(CO)nc(C)c([C@H](OC(C)(C)C)C(=O)O)c3N3CCC(C)(C)CC3)ccc2C1 [Example 113, (S)-2-(tert-Butoxy)-2-(4-(4,4-dimethylpiperidin-1-yl)-5-(2-(4-fluoro-2-methylbenzyl)-1,2,3,4-tetrahydroisoquinolin-6-yl)-6-(hydroxymethyl)-2-methylpyridin-3-yl)acetic acid] | < 0.1 µM | – | –
8 | Cc1cc(F)ccc1CN1CCc2cc(-c3c(CN(C)CC4CCOCC4)nc(C)c([C@H](OC(C)(C)C)C(=O)O)c3N3CCC(C)(C)CC3)ccc2C1 [Example 137, (S)-2-(tert-Butoxy)-2-(4-(4,4-dimethylpiperidin-1-yl)-5-(2-(4-fluoro-2-methylbenzyl)-1,2,3,4-tetrahydroisoquinolin-6-yl)-2-methyl-6-((methyl((tetrahydro-2H-pyran-4-yl)methyl)amino)methyl)pyridin-3-yl)acetic acid] | < 0.1 µM | – | –
9 | Cc1nc(COCC2CCCC2)c(-c2ccc(OCCc3ccc(F)cc3)cc2)c(N2CCC(C)(C)CC2)c1[C@H](OC(C)(C)C)C(=O)O [Example 13, (S)-2-(tert-Butoxy)-2-(6-((cyclopentylmethoxy)methyl)-4-(4,4-dimethylpiperidin-1-yl)-5-(4-(4-fluorophenethoxy)phenyl)-2-methylpyridin-3-yl)acetic acid] | < 0.1 µM | – | –
10 | Cc1cc(F)ccc1CN1CCc2cc(-c3c(C(C)O)nc(C)c([C@H](OC(C)(C)C)C(=O)O)c3N3CCC(C)(C)CC3)ccc2C1 (single isomer, unassigned) [Example 153] | – | – | < 0.1 µM
11 | Cc1nc(CN2CCC(O)CC2)c(-c2ccc(OCCc3ccc(F)cc3)cc2)c(N2CCC(C)(C)CC2)c1[C@H](OC(C)(C)C)C(=O)O [Example 87, (S)-2-(tert-Butoxy)-2-(4-(4,4-dimethylpiperidin-1-yl)-5-(4-(4-fluorophenethoxy)phenyl)-6-((4-hydroxypiperidin-1-yl)methyl)-2-methylpyridin-3-yl)acetic acid] | < 0.1 µM | – | –
12 | Cc1nc(COCc2nc(C)c([C@H](OC(C)(C)C)C(=O)O)c(N3CCC(C)(C)CC3)c2-c2ccc(OCCc3ccc(F)cc3)cc2)sc1C [Example 20, (S)-2-(tert-Butoxy)-2-(4-(4,4-dimethylpiperidin-1-yl)-6-(((4,5-dimethylthiazol-2-yl)methoxy)methyl)-5-(4-(4-fluorophenethoxy)phenyl)-2-methylpyridin-3-yl)acetic acid] | < 0.1 µM | – | –
13 | Cc1nc(COCC2CNC2)c(-c2ccc(OCCc3ccc(F)cc3)cc2)c(N2CCC(C)(C)CC2)c1[C@H](OC(C)(C)C)C(=O)O [Example 22, (S)-2-(6-((Azetidin-3-ylmethoxy)methyl)-4-(4,4-dimethylpiperidin-1-yl)-5-(4-(4-fluorophenethoxy)phenyl)-2-methylpyridin-3-yl)-2-(tert-butoxy)acetic acid] | < 0.1 µM | – | –
14 | Cc1cccc(Cl)c1CN1CCc2cc(-c3c(CN4CCC5(CCC5)CC4)nc(C)c([C@H](OC(C)(C)C)C(=O)O)c3N3CCC(C)(C)CC3)ccc2C1 [Example 180, (S)-2-(6-((7-Azaspiro[3.5]nonan-7-yl)methyl)-5-(2-(2-chloro-6-methylbenzyl)-1,2,3,4-tetrahydroisoquinolin-6-yl)-4-(4,4-dimethylpiperidin-1-yl)-2-methylpyridin-3-yl)-2-(tert-butoxy)acetic acid] | < 0.1 µM | – | –
15 | CO/C=C/c1nc(C)c([C@H](OC(C)(C)C)C(=O)O)c(N2CCC(C)(C)CC2)c1-c1ccc(OCCc2ccc(F)cc2)cc1 [Example 57, (S,E)-2-(tert-Butoxy)-2-(4-(4,4-dimethylpiperidin-1-yl)-5-(4-(4-fluorophenethoxy)phenyl)-6-(2-methoxyvinyl)-2-methylpyridin-3-yl)acetic acid] | < 0.1 µM | 0.012 µM | –
16 | Cc1nc(CN2CC(C)OC(C)C2)c(-c2ccc(OCCc3ccc(F)cc3)cc2)c(N2CCC(C)(C)CC2)c1[C@H](OC(C)(C)C)C(=O)O (stereo partly drawn) [Example 92, (2S)-2-(tert-Butoxy)-2-(6-((2,6-dimethylmorpholino)methyl)-4-(4,4-dimethylpiperidin-1-yl)-5-(4-(4-fluorophenethoxy)phenyl)-2-methylpyridin-3-yl)acetic acid] | < 0.1 µM | – | –
17 | Cc1nc(CN2CCOCC2)c(-c2ccc(OCCc3ccc(F)cc3)cc2)c(N2CCC(C)(C)CC2)c1[C@H](OC(C)(C)C)C(=O)O [Example 70, (S)-2-(tert-Butoxy)-2-(4-(4,4-dimethylpiperidin-1-yl)-5-(4-(4-fluorophenethoxy)phenyl)-2-methyl-6-(morpholinomethyl)pyridin-3-yl)acetic acid] | < 0.1 µM | – | –
18 | Cc1cc(F)ccc1CN1CCc2cc(-c3c(C(C)N(C)CC4CCOCC4)nc(C)c([C@H](OC(C)(C)C)C(=O)O)c3N3CCC(C)(C)CC3)ccc2C1 (single isomer, unassigned) [Example 151] | – | – | < 0.1 µM
19 | Cc1nc(CN2CCC(C)(C)CC2)c(-c2ccc(OCCc3ccc(F)cc3)cc2)c(N2CCC(C)(C)CC2)c1[C@H](OC(C)(C)C)C(=O)O [Example 88, (S)-2-(tert-Butoxy)-2-(4-(4,4-dimethylpiperidin-1-yl)-6-((4,4-dimethylpiperidin-1-yl)methyl)-5-(4-(4-fluorophenethoxy)phenyl)-2-methylpyridin-3-yl)acetic acid] | < 0.1 µM | – | –
20 | Cc1cccc(Cl)c1CN1CCc2cc(-c3c(N)nc(C)c([C@H](OC(C)(C)C)C(=O)O)c3N3CCC(C)(C)CC3)ccc2C1 [Example 164, (S)-2-(6-Amino-5-(2-(2-chloro-6-methylbenzyl)-1,2,3,4-tetrahydroisoquinolin-6-yl)-4-(4,4-dimethylpiperidin-1-yl)-2-methylpyridin-3-yl)-2-(tert-butoxy)acetic acid] | < 0.1 µM | – | –
21 | Cc1nc(CCCOC(C)C)c(-c2ccc(OCCc3ccc(F)cc3)cc2)c(N2CCC(C)(C)CC2)c1[C@H](OC(C)(C)C)C(=O)O [Example 56, (S)-2-(tert-Butoxy)-2-(4-(4,4-dimethylpiperidin-1-yl)-5-(4-(4-fluorophenethoxy)phenyl)-6-(3-isopropoxypropyl)-2-methylpyridin-3-yl)acetic acid] | < 0.1 µM | – | –
